Experimental data from patent publication US20210052473A1, “COMPOSITION FOR REMOVING ALDEHYDE-BASED ODORS AND REACTIVE OXYGEN SPECIES” (Osteon Co. Ltd., priority 2019, published 2021).

Test: Deodorization performance: anisidine value (p-AV) by ultraviolet spectrometry after reaction with 0.2% 2-nonenal isooctane standard solution
Settings: 20 ml 0.2% 2-nonenal isooctane solution (v/v) stirred 30 minutes with 20 ml composition; lower value = less aldehyde; Table 5
Description: At this time, 0.2% 2-nonenal isooctane solution (v/v) was used as a standard solution to determine the deodorizing performance. 2-Nonenal is a typical aldehyde compound generated by the oxidation of unsaturated fatty acids in human skin. […] The deodorizing performance of the deodorizing substances was determined by measuring the anisidine values (p-AV).

| SMILES | Anisidine value (p-AV) |
| --- | --- |
| O=S([O-])O.[Na+] [Comparative Example 1, Sodium bisulfite] | 33.28 |
| O=S([O-])O.[K+] [Comparative Example 2, Potassium bisulfite] | 33.23 |
| O=S([O-])O.[Li+] [Comparative Example 3, Lithium bisulfite] | 34.65 |
| O=S([O-])S(=O)(=O)[O-].[Na+].[Na+] [Comparative Example 4, Sodium metabisulfite] | 34.48 |
| O=S([O-])S(=O)(=O)[O-].[K+].[K+] [Comparative Example 5, Potassium metabisulfite] | 33.10 |
| O=S([O-])S(=O)(=O)[O-].[Na+].[Na+] [Comparative Example 6, Sodium metabisulfite] | 35.36 |
| O=S([O-])S(=O)(=O)[O-].[Li+].[Li+] [Comparative Example 7, Lithium metabisulfite] | 34.27 |
| O=S([O-])S(=O)[O-].[Na+].[Na+] [Comparative Example 8, Sodium hydrosulfite] | 34.39 |
| O=S([O-])S(=O)[O-].[K+].[K+] [Comparative Example 9, Potassium hydrosulfite] | 34.10 |
| O=S([O-])S(=O)[O-].[Li+].[Li+] [Comparative Example 10, Lithium hydrosulfite] | 33.98 |
| Nc1ccnc(=O)[nH]1 [Comparative Example 13, Cytosine] | 37.21 |
| Cc1c[nH]c(=O)[nH]c1=O [Comparative Example 14, Thymine] | 36.54 |
| Nc1ncnc2nc[nH]c12 [Comparative Example 15, Adenine] | 36.23 |
| Nc1nc2nc[nH]c2c(=O)[nH]1 [Comparative Example 16, Guanine] | 38.45 |
| NCCCC[C@H](N)C(=O)O [Comparative Example 17, Lysine] | 34.56 |
| N=C(N)NCCC[C@H](N)C(=O)O [Comparative Example 18, Arginine] | 38.41 |
| N[C@@H](Cc1c[nH]cn1)C(=O)O [Comparative Example 19, Histidine] | 38.09 |
